Results from US10959998B2, “Pharmaceutical use and pharmaceutical composition of pyrroloquinoline quinine, its derivatives and/or its salts” (priority 2015, dated 2021).

Assays:
[1] = test system: ectopic endometrial stromal cells; test: Cell cycle by propidium iodide flow cytometry; format: cell-based, human; conditions: 24 h, p<0.01
Description: Endometrial tissues were surgically isolated from patients with chocolate cyst of ovary, washed 2 to 3 times with PBS supplemented with antibiotics in ultra-clean cabinet, and cut into tiny pieces (about 1 mm^3 in size) with aseptic scissors. The tissues were digested with 1 mg/ml collagenase type I for 30 to 90 min at 37° C., and continually digested with Dnase I (final concentration of 15 U/ml, 2% Dnase I) for another 30 min. The digested tissues were filtered thorough 60-mesh stainless steel filter cell strainer to remove the undigested cell tissues, and were further filtered with 200- or 400-mesh strainer. The filtered solution was centrifuged at 1000 rpm for 5 min. After removing the supernatants, the cells were washed once with culture medium compounded by DMEM/F12 (1:1 v/v) and 10% fetal bovine serum, re-suspended in the culture medium, and seeded in 6-well tissue culture plate or T25 tissue culture flasks with an appropriate density. After 24 hours incubation, the culture medium was changed to remove the non-adherent blood cells, endothelial cells, macrophages and other miscellaneous cells. […] Vimentin which expresses specifically in stromal cells was detected by immuno-fluorescence to measure the cell purity. […] Cell cycle was determined with flow cytometry. […] Cell apotosis was determined by flow cytometry.

[2] = test system: superoxide anion radical (O2.-) in endometrial stromal cells; test: Determination of superoxide anion (O2.-) content; format: cell-based, human; conditions: 18 h
Description: Superoxide anion (O2.^−) assay kit was purchased from Nanjing Jiancheng Bioengineering Insitute; Hydroxyl free radical assay kit was purchased from Shanghai Xinyu Biological Technology Co., Ltd., Hydrogen Peroxide Assay Kit was purchased from Beyotime Biotechnology Research Institute. The cells were cultured in 96-well cell culture plates for 24 h after the cells adhered to the plate. Three different concentrations PQQ (30 nm, 300 nm and 3 um) were added to the culture medium respectively. After additional 18 h incubation, the culture medium was discarded, and fresh culture medium supplemented with NBT (a final concentration of 1 mg/mL) was added to the cells. The cells were continually cultured for another 1 h at 37° C. The cells were fixed with 100% methanol, and naturally dried. 120 μL KOH (2 mol/L) and 140 μL DMSO were added to the cells. The optical density at wavelength 570 nm was measured.

[3] = test system: hydrogen peroxide (H2O2) in endometrial stromal cells; test: Determination of hydrogen peroxide (H2O2) content; format: cell-based, human; conditions: 18 h
Description: Superoxide anion (O2.^−) assay kit was purchased from Nanjing Jiancheng Bioengineering Insitute; Hydroxyl free radical assay kit was purchased from Shanghai Xinyu Biological Technology Co., Ltd., Hydrogen Peroxide Assay Kit was purchased from Beyotime Biotechnology Research Institute. The cells were seeded in 6-well cell culture plates and incubated for 24 h after the cells adhered to the plate. Three different concentrations PQQ (30 nm, 300 nm and 3 μm) were added to the cultures respectively. After additional 18 h incubation, the cells were lysed using the lysis buffer contained in reagent kit, centrifuged at 12000×g for 5 min at 4° C. 50 μL of sample supernatant was mixed with 100 μL detection solution, rested 30 min at room temperature. The optical density at wavelength 560 nm was measured.

[4] = test system: endometrial stromal cells; test: Scratch test (scratch healing, cell migration); format: cell-based, human; conditions: for scratch healing: P<0.05
Description: Before the cells were plated, horizontal lines were scratched on the back of 24-well plate using a blade with the guide of a ruler. For each well, three evenly distributed lines which horizontally crossed the well were scratched. Two days after transfection, the cell fusion rate reached 90%. The wound were created by scratching on the cell layer with micropipette tip in a direction perpendicular to the lines on the back of the plate with the aid of ruler. During the operation, the micropipette tip should be kept perpendicular to the plate, and not tilt to one side. The cells were washed for three times with PBS to remove the exfoliated cells after being scratched, and 1640 culture medium supplemented with 2% FBS was added to the cells. The cells were cultured in an incubator at 37° C., in an air atmosphere containing 5% CO2. The cells were photographed in the same field of view at each indicated time point.

[5] = cited from earlier work

O=C(O)c1cc(C(=O)O)c2c(n1)C(=O)C(=O)c1cc(C(=O)O)[nH]c1-2 [PQQ, pyrroloquinoline quinone]
cell cycle ([1]; PQQ 3 um): arrest the cell in G0/G1 phase
cell cycle ([1]; PQQ 300 nm): arrest the cell in G0/G1 phase
relative content of superoxide anion radical (O2.-) ([2]; PQQ 300 nM): significantly declined
relative content of superoxide anion radical (O2.-) ([2]; PQQ 3 uM): significantly declined
relative content of hydrogen peroxide (H2O2) ([3]; PQQ 300 nM): significantly declined
relative content of hydrogen peroxide (H2O2) ([3]; PQQ 3 uM): significantly declined
migration of endometrial cells (scratch healing) ([4]; PQQ 30 nM, P>0.05): partially restrain the migration of the endometrial cells
scratch healing ([4]; PQQ 300 nM): significantly inhibit scratch healing
scratch coverage rate lower than in the control group ([4]; PQQ 3 μM, 72 h): 42%
scratch healing ([4]; PQQ 3 μM): significantly inhibit scratch healing
adverse reactions ([5]; mice fed 100 mg/kg body weight/day for 14 consecutive days): did not show any adverse reactions
half lethal dose ([5]; mice): 1000-2000 mg/kg body weight/day
